Data on 1 compound can be found in patent US20240391958A1, “KEANUMYCINS AND USES THEREOF IN MEDICINE AND PLANT PROTECTION” (Leibniz-Institut für Naturstoff-Forschung und …, priority 2023, published 2024).

Data set [1] concerns human vaginal epithelial cells A431 infected with C. albicans. The data set can be described thus: C. albicans vaginal epithelial infection model, epithelial damage (LDH). Type of data set: cell-based. Particulars: 24 hours of infection, tested 1-16 μg/ml. The method, then: (§1) FIGS. 7A-7B show in 7A) Keanumycin A protected human vaginal epithelial cells in C. albicans infection model. Micrograph depicts % damage to human vaginal epithelial cells A431 (y-axis) in the presence of keanumycin A at varied concentrations (x-axis) as estimated by LDH cytotoxicity assay after 24 hours of infection or treatment. LDH absorbance was normalized to C. albicans infected and uninfected controls. Keanumycin A protected vaginal cells from damage by C. albicans at a narrow concentration range from 4-8 μg/ml (black line). Keanumycin A was toxic to vaginal cells at concentrations above 8 μg/ml (grey line) (N=3). […] Vaginal epithelial cells were lysed after 24-hour infection, and fungal viability was measured by XTT absorbance, normalized to C. albicans infected and uninfected controls (N=2) […]
(§2) Overnight culture of C. albicans strain SC5314 grown in YPD at 30° C., shaking at 180 RPM was harvested, washed twice with PBS. […] Epithelial damage was measured 24 hours after infection by collecting and diluting the supernatant 1:10 in PBS and measuring the lactate dehydrogenase (LDH) activity with the Roche Cytotoxicity Detection Kit (LDH) as per manufacturer's instructions. The absorbance (490 nm) values are represented as percentage damage, which is normalized to the low control, where medium only is 0% damage, and high control, where C. albicans infection is 100% damage. […]

Data set [2] has as its system human umbilical vein endothelial cells HUVEC (ATCC CRL-1730). In words: Antiproliferative effect. Type of data set: cell-based. The method, then:
(§3) Keanumycin A was assayed for antiproliferative effects (GI50) using human umbilical vein endothelial cells HUVEC (ATCC CRL-1730) and human chronic myeloid leukemia cells K-562 (DSM ACC 10) and for their cytotoxic effects (CC50) using human cervix carcinoma cells HeLa (DSM ACC 57) as previously described). The test compounds were dissolved in DMSO (10 mg mL-1).

The test system of data set [3] is human chronic myeloid leukemia cells K-562 (DSM ACC 10). The data set can be described thus: Antiproliferative effect. In kind it is cell-based. Here is the method:
as §3

The next data set deals with C. albicans. The data set can be described thus: Fungal viability in vaginal epithelial infection model (XTT). In kind it is cell-based, Candida albicans. As to conditions: XTT absorbance after 24-hour infection, N=2. The method, then: as §1, §2
A general note: Tetrazolium assays rely on reduction of a dye to a coloured formazan, in cell work by metabolically active cells.

The subject of data set [4] is D. discoideum cells (AX2). In words: Amoebicidal activity against D. discoideum (cell count, CASY). Type of data set: cell-based. Particulars: Dictyostelium discoideum; 72 h, 22 °C, average of two experiments. The method, then: Amoebicidal activity of keanumycin A against D. discoideum was determined using a previously published method. In brief, 3000 D. discoideum cells (AX2) were cultured in 96-well plates (Sarstedt) in 200 μL HL5 medium containing 1% DMSO (Carl Roth) and a specified amount of compound (starting from 0.5 μM; 2-fold serial dilution) in triplicates at 22° C. After 72 h the cell concentration was determined according to the manufacturers instruction using a CASY® Cell Counter+Analyser System (Model TT, Roche Innovatis AG) equipped with a 60 μm capillary and the evaluation cursor set to 7.5-17.5 μm. The viable cell concentration (including standard deviation) was plotted against the logarithmic concentration of the compound and the IC50 value was determined using PRISM (GraphPad, Version 5.03).

A further data set can be described thus: Cytotoxicity. In kind it is cell-based. Particulars: human, HeLa cervix carcinoma cells (DSM ACC 57). Here is the method: as §3
The subject of data set [5] is C. albicans homozygous knockout mutants. The data set can be described thus: Screen of homozygous knockout mutants for growth differences. In kind it is cell-based, Candida albicans. Particulars: absence vs presence of a sublethal concentration. The text has this: To see if keanumycin A triggers the same canonical Ire1-Hac1 UPR pathway, the inventors looked at the splicing of HAC1 mRNA, which is regulated by Ire1. […] Since no other specific signaling pathway stood out, the inventors screened homozygous knockout mutants for significant growth differences in the absence and presence of a sublethal concentration of the NRLP. […] PLB5 is an important gene for phospholipid homeostasis and PMT6 codes for a transmembrane protein mannosyltransferase, which is involved in the construction of the outmost mannan cell wall layer in C. albicans.

For the next data set, the system named is Mycobacterium vaccae. The data set can be described thus: Disk diffusion test. Type of data set: cell-based. Particulars: 1 mg/mL in MeOH, 50 μL per 9 mm hole, 24 h 37 °C. Here is the method:
(§4) A qualitative screen of different microorganisms was performed using a disk diffusion test. Each microorganism was plated on Mueller Hinton agar plates and 9 mm holes were punched out. The respective compounds were dissolved in the indicated solvent to yield solutions of specified concentrations. 50 μL of the respective solutions were placed in each hole. The plates were incubated for 24 h at 37° C. After incubation, the size of inhibition zones was determined.
In general terms: In agar diffusion tests the substance spreads into inoculated agar from a disc or well.

A further data set relates to Escherichia coli. In words: Disk diffusion test. In kind it is cell-based. As to conditions: 1 mg/mL in MeOH, 50 μL per 9 mm hole, 24 h 37 °C. Here is the method:
as §4

The subject of data set [6] is Sporobolomyces salmonicolor. The data set can be described thus: Disk diffusion test. Particulars: 1 mg/mL in MeOH, 50 μL per 9 mm hole, 24 h 37 °C; methanol alone 10 mm. Type of data set: cell-based. Here is the method:
as §4

The subject of a further data set is Bacillus subtilis. In words: Disk diffusion test. Type of data set: cell-based. As to conditions: 1 mg/mL in MeOH, 50 μL per 9 mm hole, 24 h 37 °C. The method, then:
as §4

The subject of data set [7] is Staphylococcus aureus (MRSA) 134/94. In words: Disk diffusion test. Particulars: 1 mg/mL in MeOH, 50 μL per 9 mm hole, 24 h 37 °C. In kind it is cell-based. The method, then: as §4
The test system of data set [8] is Staphylococcus aureus SG 511. In words: Disk diffusion test. Type of data set: cell-based. As to conditions: 1 mg/mL in MeOH, 50 μL per 9 mm hole, 24 h 37 °C. The method, then:
as §4

Another data set deals with Candida albicans. In words: Disk diffusion test. Type of data set: cell-based. As to conditions: 1 mg/mL in MeOH, 50 μL per 9 mm hole, 24 h 37 °C. The method, then:
as §4

Data set [9] relates to Pseudomonas aeruginosa K799/61. In words: Disk diffusion test. Type of data set: cell-based. Particulars: 1 mg/mL in MeOH, 50 μL per 9 mm hole, 24 h 37 °C. The method, then:
as §4

Data set [10] concerns Pseudomonas aeruginosa SG 137. In words: Disk diffusion test. In kind it is cell-based. As to conditions: 1 mg/mL in MeOH, 50 μL per 9 mm hole, 24 h 37 °C. The method, then: as §4
Data set [11] has as its system Enterococcus faecalis (VRE) 1528. In words: Disk diffusion test. In kind it is cell-based. As to conditions: 1 mg/mL in MeOH, 50 μL per 9 mm hole, 24 h 37 °C. The method, then: as §4
A further data set deals with Penicillium notatum. In words: Disk diffusion test. Type of data set: cell-based. Particulars: 1 mg/mL in MeOH, 50 μL per 9 mm hole, 24 h 37 °C; methanol alone 10 mm. The method, then: as §4
Data set [12] relates to C. albicans strain SC5314. The data set can be described thus: MIC against C. albicans SC5314. Type of data set: cell-based. As to conditions: Candida albicans.

pIC50: −log10 of the molar value. ≈ marks a conversion by molar mass, not a printed value. Where two headings read alike, the source gives them in different places. Where a SMILES comes first, the peptide text is derived from it. Bridges are numbered along the chain shown (N, C = ends). [ ]: non-standard residue; d: D form. The star is where a group is joined. X1 = CCCCCCCCCCCC[C@@H](O)[C@@H](O)CC(=O)*; Asp(3S-OH) = N[C@H](C(=O)O)[C@H](O)C(=O)O; Thr(4-Cl) = N[C@H](C(=O)O)[C@H](O)CCl; aThr = C[C@H](O)[C@H](N)C(=O)O; d(hSer) = N[C@H](CCO)C(=O)O; dDab = NCC[C@@H](N)C(=O)O; Dab = NCC[C@H](N)C(=O)O; Dhb = C/C=C(\N)C(=O)O

By GI50 is commonly meant the concentration giving 50% growth inhibition. As a reminder, the pIC50 is the IC50 on a negative log10 scale, so that one unit is a factor of ten. Read a high pIC50 as a low IC50. One may read the CC50 as the concentration at which the toxic effect on the cells reaches its halfway point. In general, MIC refers to the least concentration at which growth counts as inhibited. Take `C/C=C1\NC(=O)[C@H]([C@H](C)O)NC(=O)[C@H](CCN)NC(=O)[C@@H](CCO)NC(=O)CNC(=O)[C@@H](CCN)NC(=O)[C@@H](NC(=O)C[C@H](O)[C@H](O)CCCCCCCCCCCC)COC(=O)[C@H]([C@H](O)CCl)NC(=O)[C@H]([C@H](O)C(=O)O)NC1=O` [Keanumycin A, keanumycin A] (X1-S[dDab]G[d(hSer)][Dab][aThr][Dhb][Asp(3S-OH)][Thr(4-Cl)]; ester 1-C): in [1], the “concentration range protecting vaginal cells from damage by C. albicans” value lay within 4 to 8 µg/mL. Besides, the GI50 in data set [2] is at least 50 µg/mL; in data set [2] (converted value, read-out: GI50) it was over 43 µM; in [3] (K562), 26.8 µg/mL; in [3] (K562, K-562, converted value, read-out: GI50), 23 µM. In the data set with C. albicans, the “% fungal viability of C. albicans in infection model” value is recorded as “reduced C. albicans viability”. In addition, the pIC50 in data set [4] was 8.36. The CC50 in the data set “Cytotoxicity” turned out to be 34.9 µg/mL; in “Cytotoxicity” (HeLa, converted value), 30 µM. For the same compound, the “growth differences of knockout mutants” value in [5] was “most prominent growth differences were observed for Δmkc1, Δplb5, and Δpmt6”. Besides, the Inhibition area diameter in the data set on Mycobacterium vaccae turned out to be 13 mm; in the data set on Escherichia coli it was 0 mm; in data set [6], 28 mm; with Bacillus subtilis, 11 mm; in [7], 0 mm; in data set [8] it was 10 mm. Moreover, the Inhibition area diameter in the data set with Candida albicans came to 30 mm; in data set [9], 0 mm; in data set [10], 0 mm; in data set [11], 12 mm; with Penicillium notatum, 26 mm. The lowest concentration to inhibit growth in [12] (MIC) was 1.72 µM (≈ 2.01 µg/mL).
